{
  "source": "patent US20250312365A1",
  "about": "“METHODS FOR INHIBITION OF SQUAMOUS CARCINOMA CELLS USING CERAMIDE MODULATORS” (The Trustees of Indiana University, priority 2024, published 2025)",
  "assay_type_in_all_cases": "cell-based, human",
  "key": {"ADAM17": {"system": "ADAM17", "assay": "ADAM17 mRNA expression in OECM1 cells", "conditions": "in combination with S1P", "procedure": "NF-kB, MMP-2, ADAM-17, and IL6 are implicated in the degradation of the expression of genes involved in the cell basement membrane and extracellular matrix of oral squamous cell carcinoma. Accordingly, the expression of NFkB, MMP2, ADAM17, and IL6 in OECM1 cells following exposure to 0.1 μg/ml PGDHC and 1 μg/ml PGDHC was determined.\nSphingosine-1-phosphate (S1P) sphingolipid plays an essential role in the survival, migration, and degradation of the basement membrane and extracellular matrix of oral squamous cell carcinoma (Yura et al., Cancers (Basel). 2020 August; 12(8): 2062). To determine whether PGDHC can inhibit such properties, the combined effects of PGDHC and S1P on OECM1 gene expression was tested in vitro."}, "NFkB": {"system": "NFkB", "assay": "NFkB mRNA expression in SCC4 cells", "conditions": "relative to control cells", "procedure": "Expression of these genes was also assessed in human tongue squamous cell carcinoma SCC4 cells."}, "OECM1 cells": {"system": "OECM1 cells", "assay": "Scratch wound healing migration assay, OECM1", "conditions": "compared to sham control", "excerpt": "In vitro assays can be used to evaluate cell migration, including scratch-wound assays and wound healing assays, as in Xu et al., Exp Ther Med. 2023 October; 26(4):460. See also Liang et al., Nat Protoc. 2007;2(2):329-33 and Martinetti & Ronzato, Methods Mol Biol. 2020:2109:225-229. Additionally, the genetic components of cell migration and invasion can be evaluated. For example, MMP-2, ADAM-17 and IL-6 are associated with degradation of the basement membranes and extracellular matrix in OECM-1 cells. See, e.g., Yamada et al., J Cell Mol Med. 2023 May; 27(9):1290-1295.\nA scratch wound healing assay was performed according to known methods to assess the effects of PGDHC on the migration of human oral squamous cell carcinoma cells. […] The scratch wound healing assay was validated with a transwell migration assay.\nA wound healing migration assay was also conducted to determine the effects of S1P alone or in combination with PGDHC on cell migration. See Yamada et al., J Cell Mol Med. 2023 May; 27(9):1290-1295."}, "N-cadherin": {"system": "N-cadherin", "assay": "Western blot of N-cadherin in OECM1 cells", "conditions": "24 h of treatment", "procedure": "To determine the effect of PGDHC on cell markers involved in metastasis, the protein levels of p-STAT3, EMT markers, E-cadherin, N-cadherin, and Vimentin in OECM1 cells following in vitro exposure to PGDHC were determined by Western blot assay."}, "ASAH1": {"system": "ASAH1", "assay": "ASAH1 (acid ceramidase) mRNA expression in OECM1 cells", "conditions": "0.1 or 1 μg/ml of PGDHC", "excerpt": "Exemplary ceramidase genes, the expression of which can be measured to determine upregulation, include but are not limited to ASAH1, ACER2, and ACER3. A determination of ceramidase gene expression can be made according to methods available to one of skill in the art. For example, Yamada et al., J Cell Mol Med. 2023 May;27(9):1290-1295 and Kyriakou et al., Int. J. Mol. Sci. 2020, 21(5):1607 describes measuring the mRNA levels of ceramidases by RNA extraction and RT-PCR.\nTo test this hypothesis, it was first determined whether artificially elevated intracellular concentration of ceramide species affect the expression of acid/ASAH1, neutral/ASAH2, and alkaline1-3/ACER1-3 ceramidases in oral squamous cell carcinoma cells using C6-ceramide. Applicant previously reported that C6-ceramide serves as a positive control for PGDHC-mediated inflammation (Kanzaki et al., Biochim Biophys Acta Mol Cell Biol Lipids. 2017 May;1862(5):452-462) and promotes the intracellular accumulation of ceramide in cancer cells. See, e.g., Zhang et al., Front Plant Sci. 2020 Feb. 26:11:145, Zhai et al., Biochem Biophys Res Commun. 2015 December;468(1-2):274-80, Wilhelm et al., Cancers (Basel). 2021 Jan. 13;13(2):270, and Chapman et al., Biochem Pharmacol. 2010 Aug. 1;80(3):308-15.\nNext, the effect of PGDHC on ceramidase gene expression was determined. OECM1 and SCC4 cells were exposed to 0.1 or 1 μg/ml of PGDHC. The mRNA levels of ceramidases were then measured following PGDHC exposure. PGDHC inhibited the expression of ASAH1 and ACER2 mRNAs in OECM1 (FIG. 8). […] See, e.g., Vijayan et al., J Adv Res. 2023 Dec. 21:S2090-1232(23)00403-4, Doan et al., Oncotarget. 2017 Nov. 7;8(68):112662-112674., Lai et al., Sci Rep. 2021 May 27;11(1):11221, Liu et al., Cancer Sci. 2020 July;111(7):2259-2274., and Liu et al., Front Genet. 2023 Mar. 1:14:1148437.\nTo elucidate the effects of C16:0 and dh-C16:0 on oral squamous cell carcinoma, the ability of exogenous C16:0 and dh-C16:0 to modulate proliferation and ceramidase expression in OECM1 cells was determined. […] In contrast, no effect of C16:0 on ASAH1 and ACER2 mRNA expressions.\nWe evaluated the effect of a15:0-i15:0 phosphoethanolamine phospholipid (FIG. 1D), isolated from the gut bacteria Akkermansia muciniphila on OSCC cells."}},
  "note": "“Also recorded” adds a separate entry of the source.",
  "data": [
    {"substance": "phosphoglycerol dihydroceramide [PGDHC]", "values": [
      {"measurement": "ADAM17 mRNA levels in OECM1 cells exposed to S1P", "setting": "ADAM17", "value": "a significant effect was not observed"},
      {"measurement": "NFkB mRNA in SCC4 cells", "setting": "NFkB", "value": "significantly diminished"},
      {"measurement": "OECM1 migration, scratch wound healing assay", "setting": "OECM1 cells; 1 μg/ml", "value": "significantly inhibited"},
      {"measurement": "S1P-mediated wound-healing migration of OECM1", "setting": "OECM1 cells; in combination with S1P", "value": "dramatically inhibited"},
      {"measurement": "protein level of N-cadherin in OECM1 cells", "setting": "N-cadherin", "value": "little to no detectable effect"},
      {"measurement": "expression of ASAH1 mRNA in OECM1", "setting": "ASAH1", "value": "inhibits; also recorded: dramatically inhibited"}
    ]}
  ]
}
